The subject of the test is TNFα release from human peripheral blood mononuclear cells. As to the kind of experiment: TNFα screen. Type of test: cell-based. The settings on record: LPS-stimulated human peripheral blood mononuclear cells, 18 hours incubation, TNFα in supernatant by ELISA, read-out: TNF IC50. Here is the method: Venous blood is collected from healthy volunteers and the mononuclear cells purified by centrifugation through Histopaque (Ficoll) cushions. TNFα production from these cells is stimulated by addition of lipopolysaccharide. After 18 hours incubation in the presence of LPS, the cell supernatant is removed and the concentration of TNFα in the supernatant determined by ELISA.

Like-named read-outs stand apart in the source and are kept apart here.

Take `COc1ccc(-n2nc(C(C)(C)C)cc2NC(=O)NCc2ccccc2Sc2ccc3nnc(C(C)C)n3c2)cc1Cl` [Example 33, N-[3-tert-Butyl-1-(3-chloro-4-methoxyphenyl)-1H-pyrazol-5-yl]-N′-{2-[(3-isopropyl[1,2,4]triazolo[4,3-a]pyridin-6-yl)thio]-benzyl}urea]: the half-maximal inhibitory concentration (IC50) (PBMC) was found to be 2 nM.
With `COc1cccc(-n2nc(C(C)(C)C)cc2NC(=O)NCc2ccccc2Sc2ccc3nnc(-c4ccccc4O)n3c2)c1` [Example 98, N-[3-tert-Butyl-1-(3-methoxyphenyl)-1H-pyrazol-5-yl]-N′-(2-{[3-(2-hydroxyphenyl)[1,2,4]triazolo[4,3-a]pyridin-6-yl]thio}benzyl)urea], the IC50 (PBMC) was found to be 0.4 nM.
Turning to `CSCC(C)(C)c1cc(NC(=O)NCc2ccccc2Sc2ccc3nnc(-c4ccccc4O)n3c2)n(-c2ccc(F)c(F)c2)n1` [Example 64], the half-inhibitory concentration (IC50) is 0.9 nM.
For the compound `CCc1cc(-n2nc(C(C)(C)C)cc2NC(=O)NCc2ccccc2Sc2ccc3nnc(C(C)C)n3c2)ccc1O` [Example 74], the IC50 stood at 4 nM.
Still for that read-out and setting: the value for `CC(C)(C)c1cc(NC(=O)NCc2ccccc2Sc2ccc3nnc(-c4ccccc4O)n3c2)n(-c2cccc(O)c2)n1` [Example 55] was 0.9 nM.
`CCc1ccccc1-c1nnc2ccc(Sc3ccccc3CNC(=O)Nc3cc(C(C)(C)SC)nn3-c3cccc(OCCO)c3)cn12` [Example 102, N-(2-{[3-(2-Ethylphenyl)[1,2,4]triazolo[4,3-a]pyridin-6-yl]thio}benzyl)-N′-{1-[3-(2-hydroxyethoxy)phenyl]-3-[1-methyl-1-(methylthio)ethyl]-1H-pyrazol-5-yl}urea]: the IC50 (PBMC) stood at 1.7 nM.
With `COc1ccccc1-c1nnc2ccc(Sc3ccccc3CNC(=O)Nc3cc(C(C)(C)C)nn3-c3cccc(O)c3)cn12` [Example 145], the IC50 came to 0.9 nM.
With `CC(C)(C)c1cc(NC(=O)NCc2ccccc2Sc2ccc3nnc(-c4ccc(O)cc4Cl)n3c2)n(-c2ccc(F)c(F)c2)n1` [Example 77], the 50% inhibitory concentration (IC50) is 2.7 nM.
With `Cc1ccc(-n2nc(C(C)(C)C)cc2NC(=O)NCc2ccccc2Sc2ccc3nnc(-c4cccc(O)c4Cl)n3c2)cc1` [Example 36, N-[3-tert-Butyl-1-(4-methylphenyl)-1H-pyrazol-5-yl]-N′-(2-{[3-(2-chloro-3-hydroxyphenyl)[1,2,4]triazolo[4,3-a]pyridin-6-yl]thio}benzyl)urea], the IC50 (PBMC) was 4.8 nM.
On to `CC(C)(C)c1cc(NC(=O)NCc2ccccc2Sc2ccc3nnc(-c4ccccc4O)n3c2)n(-c2cccc(C#N)c2)n1` [Example 51], for which the IC50 is 0.7 nM.
For `CSCC(C)(C)c1cc(NC(=O)NCc2ccccc2Sc2ccc3nnc(-c4ccccc4O)n3c2)n(-c2cccc(OCCO)c2)n1` [Example 59], the 50% inhibitory concentration (IC50) turned out to be 1.3 nM.
Still for that read-out and setting: with `CC(C)c1nnc2ccc(Sc3ccccc3CNC(=O)Nc3cc(C(C)(C)C)nn3-c3ccc(O)c(Cl)c3)cn12` [Example 73] the figure was 0.9 nM.
For the compound `CSc1ccc(-c2nnc3ccc(Sc4ccccc4CNC(=O)Nc4cc(C(C)(C)C)nn4-c4cccc(O)c4)cn23)cc1` [Example 114, N-[3-tert-Butyl-1-(3-hydroxyphenyl)-1H-pyrazol-5-yl]-N′-[2-({3-[4-(methylthio)phenyl][1,2,4]triazolo[4,3-a]pyridin-6-yl}thio)benzyl]urea], the half-inhibitory concentration (IC50) (PBMC) was 3.6 nM.
Turning to `CC(C)(C)c1cc(NC(=O)NCc2ccccc2Sc2ccc3nnc(-c4ccccc4SCCO)n3c2)n(-c2cccc(O)c2)n1` [Example 179], the half-maximal inhibitory concentration (IC50) amounted to 1.5 nM.
Same read-out and setting: the value for `CSC(C)(C)c1cc(NC(=O)NCc2ccccc2Sc2ccc3nnc(-c4cccc(Cl)c4O)n3c2)n(-c2cccc(C)c2)n1` [Example 152] was 4.9 nM; that for `CC(C)(C)c1cc(NC(=O)NCc2ccccc2Sc2ccc3nnc(-c4cc(O)ccc4Cl)n3c2)n(-c2ccc(F)c(F)c2)n1` [Example 78] was 0.8 nM.
Consider `CSC(C)(C)c1cc(NC(=O)NCc2ccccc2Sc2ccc3nnc(C(C)C)n3c2)n(-c2cccc(OCCO)c2)n1` [Example 37], for which, where the note is “PBMC”, the IC50 was 2.8 nM.
On to `Cc1cc(O)cc(-n2nc(C(C)(C)C)cc2NC(=O)NCc2ccccc2Sc2ccc3nnc(C(C)C)n3c2)c1` [Example 57], for which the IC50 came to 1.2 nM.
